Laboratory results reported in US20040048866A1 (priority 2002, published 2004).

Columns and labels:
[1] = target: T1, α1 and β1 subunits of guanylate cyclase (sGC), expressed in Sf9 cells (Homo sapiens, UniProt Q02108+Q02153); assay: Guanylate Cyclase Assay (formation of cyclic GMP from GTP); type: biochemical; details: for Mean activation at 100 μM: (activity at 100 μM with 1 μM SNP − activity at 100 μM)/(activity of SNP at 1 μM − basal activity of sGC); for Mean efficacy at 100 μM with 1 μM of SNP, [% of YC-1]: compound at 100 μM with 1 μM sodium nitroprusside (SNP), normalized to 100 μM YC-1 (without SNP) as 100%; for Emax at 100 µM: compound at 100 μM without SNP, normalized to activity of 100 μM YC-1 (without SNP) as 100%, read-out: Mean basal efficacy at 100 μM, [% of YC-1]
T1 construct: made in house; host or cells: Sf9 insect cells (baculovirus co-infection); high-speed supernatant used unpurified
T1 sequence (Q02108 1-690): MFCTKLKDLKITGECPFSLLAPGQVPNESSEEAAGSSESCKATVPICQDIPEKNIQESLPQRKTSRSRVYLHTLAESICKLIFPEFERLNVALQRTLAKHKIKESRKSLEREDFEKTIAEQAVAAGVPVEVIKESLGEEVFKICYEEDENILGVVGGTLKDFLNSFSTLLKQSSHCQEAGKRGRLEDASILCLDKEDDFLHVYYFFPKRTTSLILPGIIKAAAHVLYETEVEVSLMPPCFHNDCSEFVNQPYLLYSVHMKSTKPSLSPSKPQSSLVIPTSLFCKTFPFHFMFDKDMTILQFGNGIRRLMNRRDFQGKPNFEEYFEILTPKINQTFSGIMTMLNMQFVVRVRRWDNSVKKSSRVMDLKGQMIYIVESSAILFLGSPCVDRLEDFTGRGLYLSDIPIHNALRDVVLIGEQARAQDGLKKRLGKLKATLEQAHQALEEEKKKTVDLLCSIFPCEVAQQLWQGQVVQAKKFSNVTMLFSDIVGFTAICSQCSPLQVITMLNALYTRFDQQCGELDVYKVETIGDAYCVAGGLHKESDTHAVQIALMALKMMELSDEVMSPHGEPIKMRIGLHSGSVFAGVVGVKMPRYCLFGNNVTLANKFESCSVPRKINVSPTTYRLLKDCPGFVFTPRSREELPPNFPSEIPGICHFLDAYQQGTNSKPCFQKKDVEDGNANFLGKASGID
T1 sequence (Q02153 1-619): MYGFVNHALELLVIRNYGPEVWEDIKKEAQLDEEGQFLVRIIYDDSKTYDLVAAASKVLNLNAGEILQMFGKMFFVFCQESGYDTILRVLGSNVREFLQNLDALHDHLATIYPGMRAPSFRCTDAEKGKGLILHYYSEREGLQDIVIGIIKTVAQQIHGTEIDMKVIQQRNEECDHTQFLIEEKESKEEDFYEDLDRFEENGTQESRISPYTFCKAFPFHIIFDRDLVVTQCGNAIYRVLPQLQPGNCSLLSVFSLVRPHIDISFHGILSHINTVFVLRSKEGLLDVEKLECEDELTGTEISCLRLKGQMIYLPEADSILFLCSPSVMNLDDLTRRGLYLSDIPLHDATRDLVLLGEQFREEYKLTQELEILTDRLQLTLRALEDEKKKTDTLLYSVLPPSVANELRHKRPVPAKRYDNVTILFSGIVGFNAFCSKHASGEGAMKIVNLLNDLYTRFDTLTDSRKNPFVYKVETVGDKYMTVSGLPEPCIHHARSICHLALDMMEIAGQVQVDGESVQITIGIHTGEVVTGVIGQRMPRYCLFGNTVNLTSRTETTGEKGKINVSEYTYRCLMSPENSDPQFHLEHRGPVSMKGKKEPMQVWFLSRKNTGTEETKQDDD
Protocol: Sf9 cells were cultured in Sf-90011 medium supplemented with 10% (v/v) fetal calf serum at 28° C. to give a count of 6×10^5 cells/ml. The cells were then infected with a mixture of the virus stocks for the α1 and β1 subunits of guanylate cyclase at a multiplicity of infection of 0.1 pfu/cell. The cells were harvested 72 hours after infection and were pelleted by centrifugation. The resulting cell pellets were homogenized with Polytron homogenizer in 3 volumes of 20 mM Tris-HCl (pH 7.6) containing 1 mM EDTA, 5 mM dithiothreitol, 90 mM NaCl, 10% glycerol, and protease inhibitors mix (Roche Molecular Biochemicals). The homogenate was centrifuged at 50,000×g for 60 minutes and the supernatant was aliquotted and stored at −80° C.
Compounds of the present invention were dissolved in DMSO to make 100 mM and saved as stocks at −20° C. When compounds were tested, 10-fold concentrated solutions with 10% DMSO were prepared. 10 μl of 10-fold concentrated compound solutions were added to the reaction mixture total of 100 μl.
Guanylate cyclase activity was measured by the formation of cyclic GMP from GTP in a total volume of 100 μl. Guanylate cyclase-expressed Sf9 cell high-speed supernatant (Sf9 high-speed sup) was used as an enzyme source for the assay. The reaction mixture containing 0.1 μl enzyme of Sf9 high-speed sup, compound solution, 50 mM Tris-HCl (pH 7.6), 4 mM MgCl2, 0.5 mM IBMX, 15 mM creatine phosphate, 20 μg creatine phosphokinase, 0.1% BSA and 1 mM GTP were incubated at 37° C. for 15 minutes. After the reaction, 0.9 ml of 50 mM sodium acetate buffer (pH 5.8) was added followed by boiling for 3 minutes to stop the reaction. The solution was centrifuged at 3000 rpm for 15 minutes at room temperature and cyclic GMP in 20 μl of the resulting supernatant was measured according to the protocol of Amersham cyclic GMP enzymeimmunoassay system (Amersham, RPN 226).
Compounds of the present invention were tested at 100 μM with and without 1 μM of sodium nitroprusside (SNP). YC-1 was included as a standard for each assay. The data was normalized with the activity of 100 μM YC-1 (without SNP) as 100%. Mean basal efficacy, in Table 1, was expressed as a percentage of 100 μM YC-1 (without SNP).
The mean activation, in Table 1, was calculated based on the formula: (activity of compound of the present invention at 100 μM with 1 μM SNP)−(activity of compound of on at 100 μM)/(activity of SNP at 1 μM)−(basal activity of sGC).

melting point [°C] | Mean activation at 100 μM [1] | Mean efficacy at 100 μM with 1 μM of SNP, [% of YC-1] [1] | Emax at 100 µM [1] [%] | SMILES
80 to 82 | 1.4 | 11 % of YC-1 | 1 | OCc1ccc(Cn2nc(OCc3ccccc3)c3ccccc32)o1 [Example 29, (5-{[3-(benzyloxy)-1H-indazol-1-yl]methyl}-2-furyl)methanol]
200 to 202 | 1.7 | 17 % of YC-1 | 0 | Clc1ccc(NN=Cc2ccc(Oc3nn(Cc4ccccc4)c4ccccc34)o2)nn1 [Example 3, 5-[(1-benzyl-1H-indazol-3-yl)oxy]-2-furaldehyde (6-chloro-3-pyridazinyl)hydrazone]
156 to 158 | 1.8 | 20 % of YC-1 | 0 | OCc1cccc(Oc2nn(Cc3ccccc3)c3ccccc23)n1 [Example 2, {6-[(1-benzyl-1H-indazol-3-yl)oxy]-2-pyridinyl}methanol]
 | 1.9 | 15 % of YC-1 | 6 | CN(C)CCNC(=O)c1ccccc1Oc1nn(Cc2ccccc2)c2ccccc12 [Example 16, 2-[(1-benzyl-1H-indazol-3-yl)oxy]-N-[2-(dimethylamino)ethyl]benzamide]
 | 1.9 | 12 % of YC-1 | 3 | O=C(NC1CCC(O)CC1)c1ccccc1Oc1nn(Cc2ccccc2)c2ccccc12 (stereo not drawn) [Example 19, 2-[(1-benzyl-1H-indazol-3-yl)oxy]-N-(4-hydroxycyclohexyl)benzamide]
 | 1.4 | 15 % of YC-1 | 3 | FC(F)(F)c1cncc(Oc2nn(Cc3ccccc3)c3ccccc23)c1 [Example 13, 1-benzyl-3-{[5-(trifluoromethyl)-3-pyridinyl]oxy}-1H-indazole]
 | 1.5 | 11 % of YC-1 | 6 | O=C(N[C@H]1Cc2ccccc2[C@H]1O)c1ccccc1Oc1nn(Cc2ccccc2)c2ccccc12 [Example 20, 2-[(1-benzyl-1H-indazol-3-yl)oxy]-N-[(1R,2S)-1-hydroxy-2,3-dihydro-1H-inden-2-yl]benzamide]
111 to 113 | 1.0 | 7 % of YC-1 | 4 | O=[N+]([O-])c1ccc(Oc2nn(Cc3ccccc3F)c3ncccc23)nc1 [Example 34, 1-(2-fluorobenzyl)-3-[(5-nitro-2-pyridinyl)oxy]-1H-pyrazolo[3,4-b]pyridine]
162 to 165 | 1.5 | 26 % of YC-1 | 0 | O=C(O)c1ccc(Oc2nn(Cc3ccccc3)c3ccccc23)o1 [Example 4, 5-[(1-benzyl-1H-indazol-3-yl)oxy]-2-furoic acid]
115 to 117 | 1.9 | 28.1 % of YC-1 | 7.1 | O=[N+]([O-])c1cccnc1Oc1nn(Cc2ccccc2F)c2ncccc12 [Example 35, 1-(2-fluorobenzyl)-3-[(3-nitro-2-pyridinyl)oxy]-1H-pyrazolo[3,4-b]pyridine]
 | 1.7 | 12 % of YC-1 | 5 | O=C(NCCCn1ccnc1)c1ccccc1Oc1nn(Cc2ccccc2)c2ccccc12 [Example 24, 2-[(1-benzyl-1H-indazol-3-yl)oxy]-N-[3-(1H-imidazol-1-yl)propyl]benzamide]
